Experimental data as given in the NIST ThermoML archive (doi:10.1021/je2012555).
± gives the expanded uncertainty stated by the source.

Test: mn = molality of the nth substance listed, in mol/kg
Details: 101 kPa, Liquid; for mass density: Vibrating tube method

CNC(=O)CNC(C)=O [2-acetamido-N-methylacetamide] + O
Details	apparent molar heat capacity [J/K/mol]	mass density [kg/m3]
298.15 K, m1 = 0.04565	–	998.056 ± 0.067
298.15 K, m1 = 0.0479	328.9 ± 8.5	–
298.15 K, m1 = 0.05924	–	998.352 ± 0.066
298.15 K, m1 = 0.0715	328.6 ± 5.8	–
298.15 K, m1 = 0.07804	–	998.754 ± 0.066
298.15 K, m1 = 0.09293	–	999.062 ± 0.066
298.15 K, m1 = 0.0958	327.8 ± 4.4	–
298.15 K, m1 = 0.0987	–	999.177 ± 0.066
298.15 K, m1 = 0.1439	326 ± 3.1	–
298.15 K, m1 = 0.153	–	1000.32 ± 0.066
298.15 K, m1 = 0.1615	–	1000.5 ± 0.066
298.15 K, m1 = 0.1766	–	1000.79 ± 0.066
298.15 K, m1 = 0.1889	–	1001.04 ± 0.066
298.15 K, m1 = 0.1912	324 ± 2.4	–
303.15 K, m1 = 0.0479	334.9 ± 8.5	–
303.15 K, m1 = 0.0715	336.1 ± 5.8	–
303.15 K, m1 = 0.0958	334.3 ± 4.4	–
303.15 K, m1 = 0.1439	333.6 ± 3.1	–
303.15 K, m1 = 0.1912	330.6 ± 2.4	–
308.15 K, m1 = 0.0479	343 ± 8.5	–
308.15 K, m1 = 0.0715	343.3 ± 5.8	–
308.15 K, m1 = 0.0958	342.7 ± 4.4	–
308.15 K, m1 = 0.1439	343.1 ± 3.1	–
308.15 K, m1 = 0.1912	342.7 ± 2.4	–
313.15 K, m1 = 0.0479	349.6 ± 8.5	–
313.15 K, m1 = 0.0715	350 ± 5.8	–
313.15 K, m1 = 0.0958	349.6 ± 4.5	–
313.15 K, m1 = 0.1439	350.6 ± 3.1	–
313.15 K, m1 = 0.1912	350.9 ± 2.5	–
318.15 K, m1 = 0.0479	357 ± 8.5	–
318.15 K, m1 = 0.0715	358.4 ± 5.8	–
318.15 K, m1 = 0.0958	359.1 ± 4.5	–
318.15 K, m1 = 0.1439	358.2 ± 3.1	–
318.15 K, m1 = 0.1912	360 ± 2.5	–
323.15 K, m1 = 0.0479	360.1 ± 8.5	–
323.15 K, m1 = 0.0715	361.7 ± 5.8	–
323.15 K, m1 = 0.0958	361.6 ± 4.5	–
323.15 K, m1 = 0.1439	361.4 ± 3.1	–
323.15 K, m1 = 0.1912	363 ± 2.5	–
328.15 K, m1 = 0.0479	365.8 ± 8.5	–
328.15 K, m1 = 0.0715	366.7 ± 5.8	–
328.15 K, m1 = 0.0958	367.2 ± 4.5	–
328.15 K, m1 = 0.1439	369.7 ± 3.1	–
328.15 K, m1 = 0.1912	369.1 ± 2.5	–

CNC(=O)[C@H](CC(C)C)NC(C)=O [(S)-2-acetamido-N,4-dimethylpentanamide] + O
Details	apparent molar heat capacity [J/K/mol]	mass density [kg/m3]
298.15 K, m1 = 0.0463	681 ± 9.2	–
298.15 K, m1 = 0.04684	–	997.65 ± 0.064
298.15 K, m1 = 0.0559	682.8 ± 7.7	–
298.15 K, m1 = 0.07	682.5 ± 6.3	–
298.15 K, m1 = 0.08312	–	998.122 ± 0.064
298.15 K, m1 = 0.0936	680.2 ± 4.9	–
298.15 K, m1 = 0.09402	–	998.23 ± 0.064
298.15 K, m1 = 0.1007	–	998.343 ± 0.064
298.15 K, m1 = 0.108	–	998.407 ± 0.065
298.15 K, m1 = 0.1129	680 ± 4.4	–
298.15 K, m1 = 0.1157	–	998.565 ± 0.065
298.15 K, m1 = 0.13	–	998.75 ± 0.065
298.15 K, m1 = 0.1414	–	998.921 ± 0.064
298.15 K, m1 = 0.1423	681.9 ± 3.8	–
298.15 K, m1 = 0.1613	–	999.112 ± 0.064
303.15 K, m1 = 0.0463	683.5 ± 9.2	–
303.15 K, m1 = 0.0559	684.7 ± 7.7	–
303.15 K, m1 = 0.07	684.3 ± 6.3	–
303.15 K, m1 = 0.0936	682.6 ± 4.9	–
303.15 K, m1 = 0.1129	682.2 ± 4.4	–
303.15 K, m1 = 0.1423	684.4 ± 3.8	–
308.15 K, m1 = 0.0463	687.5 ± 9.2	–
308.15 K, m1 = 0.0559	688.6 ± 7.7	–
308.15 K, m1 = 0.07	687.3 ± 6.3	–
308.15 K, m1 = 0.0936	688.3 ± 5	–
308.15 K, m1 = 0.1129	686.7 ± 4.4	–
308.15 K, m1 = 0.1423	687.4 ± 3.8	–
313.15 K, m1 = 0.0463	690.1 ± 9.2	–
313.15 K, m1 = 0.0559	691.3 ± 7.7	–
313.15 K, m1 = 0.07	690.9 ± 6.3	–
313.15 K, m1 = 0.0936	690.3 ± 5	–
313.15 K, m1 = 0.1129	689.6 ± 4.4	–
313.15 K, m1 = 0.1423	691.1 ± 3.8	–
318.15 K, m1 = 0.0463	691.6 ± 9.2	–
318.15 K, m1 = 0.0559	692.3 ± 7.7	–
318.15 K, m1 = 0.07	692.3 ± 6.3	–
318.15 K, m1 = 0.0936	691.5 ± 5	–
318.15 K, m1 = 0.1129	691.7 ± 4.4	–
318.15 K, m1 = 0.1423	692.4 ± 3.8	–
323.15 K, m1 = 0.0463	693.1 ± 9.2	–
323.15 K, m1 = 0.0559	694.7 ± 7.7	–
323.15 K, m1 = 0.07	694.8 ± 6.3	–
323.15 K, m1 = 0.0936	693.4 ± 5	–
323.15 K, m1 = 0.1129	693.6 ± 4.4	–
323.15 K, m1 = 0.1423	694.8 ± 3.8	–
328.15 K, m1 = 0.0463	695.9 ± 9.2	–
328.15 K, m1 = 0.0559	696.8 ± 7.7	–
328.15 K, m1 = 0.07	696.9 ± 6.3	–
328.15 K, m1 = 0.0936	695.8 ± 5	–
328.15 K, m1 = 0.1129	697.5 ± 4.4	–
328.15 K, m1 = 0.1423	696.4 ± 3.8	–
